Assay [1] deals with recombinant JAK2 (amino acids 831-1132) (Homo sapiens (Human), UniProt O60674). The experiment in a line: Enzyme inhibition studies, JAK2 (5 mM ATP, Caliper). The format is biochemical. The protocol: (§1) JAK enzyme was expressed as N-terminal GST fusion in insect cells and purified by glutathione-affinity and size-exclusion chromatographies. Enzymes were assayed at their approximated high end of physiological ATP concentration of 5 mM, in the presence of inhibitor dosed at 30, 3, 0.3, 0.03, 0.003 and 0 μM final test concentrations.
recombinant JAK2 (amino acids 831-1132), sequence (O60674 831-1132): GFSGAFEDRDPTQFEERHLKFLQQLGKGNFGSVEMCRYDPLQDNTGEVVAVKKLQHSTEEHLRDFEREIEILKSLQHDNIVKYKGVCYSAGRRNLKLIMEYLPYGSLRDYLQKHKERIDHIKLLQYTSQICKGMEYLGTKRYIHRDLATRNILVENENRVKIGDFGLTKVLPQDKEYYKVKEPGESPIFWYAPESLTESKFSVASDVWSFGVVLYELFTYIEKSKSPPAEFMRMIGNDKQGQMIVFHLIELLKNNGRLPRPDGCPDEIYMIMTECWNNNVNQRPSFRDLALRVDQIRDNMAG
(§2) Phosphorylated and unphosphotylated peptides were separated and quantified by a Caliper LC3000 system (Caliper Life Sciences, MA) for calculating percent inhibition.

For assay [2], the target named is recombinant JAK1 (amino acids 866-1154) (Homo sapiens (Human), UniProt P23458). The experiment in a line: Enzyme inhibition studies, JAK1 (5 mM ATP, Caliper). The format is biochemical. The protocol:
as §1, §2

In assay [3] the target is recombinant JAK3 (amino acids 781-1124) (Homo sapiens (Human), UniProt P52333). The experiment in a line: Enzyme inhibition studies, JAK3 (5 mM ATP, Caliper). In kind it is biochemical. Here is the method:
as §1, §2

Assay [4] relates to IL-13 induced STAT6 promotor luciferase reporter in U937 monocytes (U937-STAT6-Luc). Description: Cellular interleukin (IL-13) induced JAK-STAT6-luciferase assay (pSTAT6). The format is cell-based. The conditions noted are these: Homo sapiens, U-937; IL-13 induced STAT6-luciferase, U937-STAT6-Luc cells. Here is the method:
Cells were harvested by centrifugation at 250 g for 5 min and resuspended in Assay buffer (20 mM HEPES, 1×HBSS and 0.1% BSA) to 1000 cells pr μl. For stimulation of cells was used interleukin (IL-13) also dissolved in Assay buffer to […]. […] Test and control compounds were applied to assay plates (low vol white 384-well plates) in serial dilutions from 10 mM to 0.5 nM at 5 nl pr well in DMSO.
To each well was added 4 μl cells and 4 μl interleukin (IL-13) and the plates were sealed and incubated at 37° C. for 4½ h and then at room temperature for 30 min. The assay was developed by addition of 4 μl pr well of SteadyGlo (Promega) and after […] the plates were read at an Envision plate reader with luminescence filter.

For orientation: pIC50 means −log10 of the IC50, conventionally taken in molar units.

The structures appear in SMILES notation. pIC50: −log10 of the molar value. Where only a bound is given, the exact number is not on record here.

recombinant JAK1 (amino acids 866-1154), sequence (P23458 866-1154): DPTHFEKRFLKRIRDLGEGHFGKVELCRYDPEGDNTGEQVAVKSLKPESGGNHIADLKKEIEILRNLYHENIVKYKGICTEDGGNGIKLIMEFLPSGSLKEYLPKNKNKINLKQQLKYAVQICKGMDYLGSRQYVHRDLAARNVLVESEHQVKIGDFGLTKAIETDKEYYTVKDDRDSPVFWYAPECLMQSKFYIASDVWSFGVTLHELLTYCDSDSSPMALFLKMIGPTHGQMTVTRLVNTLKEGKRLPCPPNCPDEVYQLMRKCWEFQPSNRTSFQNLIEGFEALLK
recombinant JAK3 (amino acids 781-1124), sequence (P52333 781-1124): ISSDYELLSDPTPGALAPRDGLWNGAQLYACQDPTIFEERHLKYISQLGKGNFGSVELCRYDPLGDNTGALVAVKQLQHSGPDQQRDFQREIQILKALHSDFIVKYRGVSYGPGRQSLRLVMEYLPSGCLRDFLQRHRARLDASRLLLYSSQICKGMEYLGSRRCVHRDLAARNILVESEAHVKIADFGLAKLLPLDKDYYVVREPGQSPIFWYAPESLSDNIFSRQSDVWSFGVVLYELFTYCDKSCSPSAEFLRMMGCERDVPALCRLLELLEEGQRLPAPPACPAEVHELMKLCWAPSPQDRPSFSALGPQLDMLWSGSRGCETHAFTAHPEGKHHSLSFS

Take `CC[C@@H](C(=O)Nc1cccc2c(-c3nc(Nc4cccc(S(C)(=O)=O)c4F)ncc3C)c[nH]c12)N1C[C@@H](C)N[C@H](C)C1` [Example 27, (S)-2-((3R,5R)-3,5-dimethylpiperazin-1-yl)-N-(3-(2-((2-fluoro-3-(methylsulfonyl)phenyl)amino)-5-methylpyrimidin-4-yl)-1H-indol-7-yl)butanamide]: the pIC50 is 6.79 in assay [1], over 8.52 in assay [2], under 4.52 in assay [3] and 7.39 in assay [4].

Turning to `COC[C@@H](C(=O)Nc1cccc2c(-c3nc(Nc4cccc(S(C)(=O)=O)c4F)ncc3C)c[nH]c12)N1C[C@@H](C)N[C@H](C)C1` [Example 28, (S)-2-((3R,5R)-3,5-dimethylpiperazin-1-yl)-N-(3-(2-((2-fluoro-3-(methylsulfonyl)phenyl)amino)-5-methylpyrimidin-4-yl)-1H-indol-7-yl)-3-methoxypropanamide], the pIC50 in assay [1] is 5.13; in assay [2], 7.34; in assay [3] it was under 4.52; in assay [4], 6.83.

`COC[C@H](C(=O)Nc1cccc2c(-c3nc(Nc4cccc(S(C)(=O)=O)c4F)ncc3C)c[nH]c12)N1C[C@@H](C)N[C@H](C)C1` [Example 29, (R)-2-((3R,5R)-3,5-dimethylpiperazin-1-yl)-N-(3-(2-((2-fluoro-3-(methylsulfonyl)phenyl)amino)-5-methylpyrimidin-4-yl)-1H-indol-7-yl)-3-methoxypropanamide]: the negative-log IC50 (pIC50) in assay [1] was 5.92; in assay [2], over 8.52; in assay [3] it was under 4.52; in assay [4], 7.40.

Regarding `CC[C@@H](C(=O)Nc1cccc2c(-c3nc(Nc4cccc(S(C)(=O)=O)c4F)ncc3F)c[nH]c12)N1C[C@@H](C)N[C@H](C)C1` [Example 30, (S)-2-((3R,5R)-3,5-dimethylpiperazin-1-yl)-N-(3-(5-fluoro-2-((2-fluoro-3-(methylsulfonyl)phenyl)amino)pyrimidin-4-yl)-1H-indol-7-yl)butanamide], the pIC50 is 5.94 in assay [1], 7.85 in assay [2], under 4.52 in assay [3] and 7.14 in assay [4].

Take `CC[C@H](C(=O)Nc1cccc2c(-c3nc(Nc4cccc(S(C)(=O)=O)c4F)ncc3F)c[nH]c12)N1C[C@@H](C)N[C@H](C)C1` [Example 31, (R)-2-((3R,5R)-3,5-dimethylpiperazin-1-yl)-N-(3-(5-fluoro-2-((2-fluoro-3-(methylsulfonyl)phenyl)amino)pyrimidin-4-yl)-1H-indol-7-yl)butanamide]: the pIC50 was 5.75 in assay [1], 8.19 in assay [2], under 4.52 in assay [3] and 7.13 in assay [4].

Turning to `COC[C@@H](C(=O)Nc1cccc2c(-c3nc(Nc4cccc(S(C)(=O)=O)c4F)ncc3F)c[nH]c12)N1C[C@@H](C)N[C@H](C)C1` [Example 32], the pIC50 is under 4.52 in assay [1], 6.32 in assay [2], under 4.52 in assay [3] and 6.03 in assay [4].

Take `COC[C@H](C(=O)Nc1cccc2c(-c3nc(Nc4cccc(S(C)(=O)=O)c4F)ncc3F)c[nH]c12)N1C[C@@H](C)N[C@H](C)C1` [Example 33, (R)-2-((3R,5R)-3,5-dimethylpiperazin-1-yl)-N-(3-(5-fluoro-2-((2-fluoro-3-(methylsulfonyl)phenyl)amino)pyrimidin-4-yl)-1H-indol-7-yl)-3-methoxypropanamide]: the pIC50 was 5.71 in assay [1], over 8.52 in assay [2], under 4.52 in assay [3] and 7.26 in assay [4].

For `CC[C@@H](C(=O)Nc1cccc2c(-c3nc(Nc4cccc(S(C)(=O)=O)c4F)ncc3C)c[nH]c12)N1CCCN(C)CC1` [Example 36, (S)-N-(3-(2-((2-fluoro-3-(methylsulfonyl)phenyl)amino)-5-methylpyrimidin-4-yl)-1H-indol-7-yl)-2-(4-methyl-1,4-diazepan-1-yl)butanamide], the pIC50 in assay [1] was under 4.52; in assay [2] it was 7.15; in assay [3] it was under 4.52; in assay [4], 6.78.

Regarding `CC[C@H](C(=O)Nc1cccc2c(-c3nc(Nc4cccc(S(C)(=O)=O)c4F)ncc3C)c[nH]c12)N1CCCN(C)CC1` [Example 37, (R)-N-(3-(2-((2-fluoro-3-(methylsulfonyl)phenyl)amino)-5-methylpyrimidin-4-yl)-1H-indol-7-yl)-2-(4-methyl-1,4-diazepan-1-yl)butanamide], the pIC50 is 6.01 in assay [1], over 8.52 in assay [2], under 4.52 in assay [3] and 7.57 in assay [4].

For the compound `CC[C@H](C(=O)Nc1cccc2c(-c3nc(Nc4cccc(S(C)(=O)=O)c4F)ncc3F)c[nH]c12)N1CCN(C)CC1` [Example 38], the pIC50 in assay [1] is 5.16; in assay [2], 8.48; in assay [3], under 4.52; in assay [4] it was 7.37.

`CC[C@@H](C(=O)Nc1cccc2c(-c3nc(Nc4cccc(S(C)(=O)=O)c4F)ncc3F)c[nH]c12)N1CCN(C)CC1` [Example 39, (S)-N-(3-(5-fluoro-2-((2-fluoro-3-(methylsulfonyl)phenyl)amino)pyrimidin-4-yl)-1H-indol-7-yl)-2-(4-methylpiperazin-1-yl)butanamide]: the pIC50 in assay [1] is under 4.52; in assay [2] it was 6.59; in assay [3], under 4.52; in assay [4], 6.35.

Consider `COC[C@@H](C(=O)Nc1cccc2c(-c3nc(Nc4cccc(S(C)(=O)=O)c4F)ncc3F)c[nH]c12)N1C[C@H](C)N(C)[C@@H](C)C1` [Example 40], for which the pIC50 in assay [1] was under 4.52; in assay [2], 5.48; in assay [3] it was under 4.52; in assay [4], under 5.20.

With `COC[C@H](C(=O)Nc1cccc2c(-c3nc(Nc4cccc(S(C)(=O)=O)c4F)ncc3F)c[nH]c12)N1C[C@H](C)N(C)[C@@H](C)C1` [Example 41, (R)-N-(3-(5-fluoro-2-((2-fluoro-3-(methylsulfonyl)phenyl)amino)pyrimidin-4-yl)-1H-indol-7-yl)-3-methoxy-2-((3S,5S)-3,4,5-trimethylpiperazin-1-yl)propanamide], the pIC50 in assay [1] is 5.32; in assay [2], 8.40; in assay [3], under 4.52; in assay [4], 7.24.

On to `COC[C@H](C(=O)Nc1cccc2c(-c3nc(Nc4cccc(S(C)(=O)=O)c4F)ncc3C)c[nH]c12)N1CCCN(C)CC1` [Example 42, (R)-N-(3-(2-((2-fluoro-3-(methylsulfonyl)phenyl)amino)-5-methylpyrimidin-4-yl)-1H-indol-7-yl)-3-methoxy-2-(4-methyl-1,4-diazepan-1-yl) propanamide], for which the pIC50 in assay [1] was 6.22; in assay [2], over 8.52; in assay [3] it was under 4.52; in assay [4], 7.44.

As for `COC[C@@H](C(=O)Nc1cccc2c(-c3nc(Nc4cccc(S(C)(=O)=O)c4F)ncc3C)c[nH]c12)N1CCCN(C)CC1` [Example 43, (S)-N-(3-(2-((2-fluoro-3-(methylsulfonyl)phenyl)amino)-5-methylpyrimidin-4-yl)-1H-indol-7-yl)-3-methoxy-2-(4-methyl-1,4-diazepan-1-yl)propanamide], the pIC50 in assay [1] was under 4.52; in assay [2], 7.02; in assay [3] it was under 4.52; in assay [4], 6.32.

Consider `COC[C@@H](C(=O)Nc1cccc2c(-c3nc(Nc4cccc(S(C)(=O)=O)c4F)ncc3F)c[nH]c12)N1CCCN(C)CC1` [Example 44, (S)-N-(3-(5-fluoro-2-((2-fluoro-3-(methylsulfonyl)phenyl)amino)pyrimidin-4-yl)-1H-indol-7-yl)-3-methoxy-2-(4-methyl-1,4-diazepan-1-yl)propanamide], for which the pIC50 is under 4.52 in assay [1], 6.02 in assay [2], under 4.52 in assay [3] and 5.52 in assay [4].

Turning to `COC[C@H](C(=O)Nc1cccc2c(-c3nc(Nc4cccc(S(C)(=O)=O)c4F)ncc3F)c[nH]c12)N1CCCN(C)CC1` [Example 45, (R)-N-(3-(5-fluoro-2-((2-fluoro-3-(methylsulfonyl)phenyl)amino)pyrimidin-4-yl)-1H-indol-7-yl)-3-methoxy-2-(4-methyl-1,4-diazepan-1-yl)propanamide], the pIC50 in assay [1] was 6.14; in assay [2], over 8.52; in assay [3], under 4.52; in assay [4] it was 7.44.

Take `C[C@H](C(=O)Nc1cccc2c(-c3nc(Nc4cccc(S(C)(=O)=O)c4F)ncc3F)c[nH]c12)N1CCCN(C)CC1` [Example 46, (R)-N-(3-(5-fluoro-2-((2-fluoro-3-(methylsulfonyl)phenyl)amino)pyrimidin-4-yl)-1H-indol-7-yl)-2-(4-methyl-1,4-diazepan-1-yl)propanamide]: the pIC50 was 4.75 in assay [1], 7.70 in assay [2], under 4.52 in assay [3] and 7.08 in assay [4].

Values taken from patent US10961228B2, “JAK1 selective inhibitors” (AstraZeneca AB, priority 2017, dated 2021).
